Like-named read-outs stand apart in the source and are kept apart here. Marks after values point to notes of the source that are not given here.
Tests used:
[1] = patients with Parkinson's disease, stroke and spinal cord injuries; cited from earlier work
[2] = system: domestic cat model of Niemann-Pick C; test: Feline model of NPC: neurologic and clinical findings; format: in vivo; set-up: Front leg Hopping / Rear leg hopping / Vision-Menace: scale not given here; settings: for Ataxia / Front leg Hopping / Intention tremors / Rear leg hopping / Vision-Menace: NPC-affected cat S222, NB-DNJ treated
Method: A breeding colony for this animal model of NPC is being maintained to study the disease and its potential treatments (Brown et al (1996) J. Inherit Metab. Dis. 19:319-330).
From seven feline NPC carrier litter mates, normal and NPC-affected male and female cats were selected for the study. The affected female and unaffected male began treatment with NB-DNJ at 1200 mg/kg/day. […] During a brief recovery period for these animals, an unrelated normal cat was treated to determine the maximum tolerated dose for NB-DNJ in this species. Based on this dose-ranging work, the NPC-affected and unaffected litter mates were restarted with NB-DNJ at 50 mg/kg/day. Over the following weeks, the administration level was increased to 150 mg/kg/day. […] Except for brief intervals when the treatments were withheld because of transient appetite loss, the NB-DNJ dosages were continued for about three months. On this date, the animals were sacrificed for histologic and lipid analyses.
Cat number: S222; Status: NPC-affected, NB-DNJ-treated; […]; […]. […] […] also was noted to have bilateral luxating patellas at about the same time. […] Over the course of the next 20 weeks, her disease symptoms slowly worsened. However, on several occasions it was noted by the consulting neurologist that her symptoms were less severe than those of S221. […] The following is a tabulation of her neurologic and medical findings:

[3] = format: in vivo; settings: for Weight: NPC-affected cat S222, NB-DNJ treated, measured within 10 days before neuronal assessment
[4] = system: GM2 ganglioside; test: Immunocytochemistry with anti-GM2 ganglioside antibodies in cat brain; format: in vivo
From the text: The following sections highlight the histologic and lipid analysis findings for the study animals. As with humans, there is an increased expression of gangliosides in feline NPC neurons. […] There is a corresponding increase in neuronal ganglioside level and histology changes seen in NPC humans.
Immunocytochemical studies with anti-GM2 ganglioside antibodies were used to probe for ganglioside expression in treated vs. untreated cats in a qualitative manner.

[5] = system: NPC^−/− mice; test: Mouse model of NPC: symptoms and survival; format: in vivo
From the text: Colonies of mutant mice expressing the NPC phenotype have been described (Pentchev et al., 1984, Miyawaki et al., 1986; Kitagawa, 1987), and has been validated by a number of criteria as an authentic model of the disease (Akaboshi et al., 1997). NPC mice display clinical signs of the disease around 6-8 weeks of age with mild intention tremor and ataxia. […] Death results by 10-12 weeks.
Breeding pairs of mice heterozygous for the mutation causing NPC were used to produce offspring that are NPC^−/− homozygotes. These animals, along with their normal wildtype littermates, were used in the following NB-DNJ drug study. Where indicated, NB-DNJ was administered daily by mixing with ground mouse chow. Mice were PCR genotyped 2-3 weeks of age to determine their genetic background.
[…] NPC^−/− mice, with ages ranging from 3-7 weeks, were entered into a treatment study. Seven were treated with 1200 mg/kg/day and six were untreated. […] By 10 weeks of age, all six untreated NPC^−/− mice died or were sacrificed according to veterinary animal care requirements. In contrast, 4 of 7 NPC^−/− mice treated with NB-DNJ lived into their twelfth week. […] In this experiment, untreated NPC^−/− mice survived 65±1 days (average ±SE; n=6), while NPC^−/− mice treated with NB-DNJ at 1200 mg/kg/day survived 88±4 days (n=7).

[6] = biological target: T1, alpha-glucosidase 1 (Homo sapiens, UniProt Q13724); settings: cited from earlier work
T1 sequence (Q13724 1-837): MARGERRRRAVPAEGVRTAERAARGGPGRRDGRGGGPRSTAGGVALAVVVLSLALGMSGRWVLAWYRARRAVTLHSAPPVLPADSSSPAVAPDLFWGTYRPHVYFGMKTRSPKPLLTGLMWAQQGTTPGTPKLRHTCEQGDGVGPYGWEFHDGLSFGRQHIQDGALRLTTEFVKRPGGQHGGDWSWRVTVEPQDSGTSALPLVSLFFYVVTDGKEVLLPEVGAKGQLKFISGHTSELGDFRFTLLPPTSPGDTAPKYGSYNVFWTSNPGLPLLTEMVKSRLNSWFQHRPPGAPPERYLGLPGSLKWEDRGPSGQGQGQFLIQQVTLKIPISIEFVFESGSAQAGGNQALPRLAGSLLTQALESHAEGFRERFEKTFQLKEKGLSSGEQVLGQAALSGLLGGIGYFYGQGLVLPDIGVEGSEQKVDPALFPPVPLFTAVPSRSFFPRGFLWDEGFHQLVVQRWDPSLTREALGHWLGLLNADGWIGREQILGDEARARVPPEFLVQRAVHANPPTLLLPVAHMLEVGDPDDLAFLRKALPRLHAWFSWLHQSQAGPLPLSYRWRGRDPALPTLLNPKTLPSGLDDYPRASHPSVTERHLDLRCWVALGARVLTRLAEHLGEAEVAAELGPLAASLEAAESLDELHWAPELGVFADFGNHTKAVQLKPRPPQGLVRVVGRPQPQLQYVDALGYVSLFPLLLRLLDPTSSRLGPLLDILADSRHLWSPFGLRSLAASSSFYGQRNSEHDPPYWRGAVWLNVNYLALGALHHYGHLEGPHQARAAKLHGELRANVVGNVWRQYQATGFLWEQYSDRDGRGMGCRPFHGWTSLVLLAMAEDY

[7] = system: glucosylceramide synthesis; settings: cells treated with NB-DNJ; cited from earlier work
[8] = NPC-affected cat S222, 100 mg/kg/day

For GM1 ganglioside, the Neurodegenerative processes [1] is listed as “seem to improve”.

With `CCCCN1C[C@H](O)[C@@H](O)[C@H](O)[C@H]1CO` [NB-DNJ, N-butyldeoxynojirimycin] the “Severity of disease symptoms versus untreated NPC cat S221” value ([2]; NPC-affected cat S222, 100 mg/kg/day, noted by consulting neurologist) was “less severe”, the Ataxia ([2]; Week 6.5) was “none” and the “Front leg Hopping” value ([2]; Week 6.5) was 2. For the same molecule, the Intention tremors ([2]; Week 6.5) was “none”, the Rear leg hopping ([2]; Week 6.5) was 2 and the Vision-Menace ([2]; Week 6.5) was 2. For the same molecule, the Ataxia ([2]; Week 12.5) was “none”, the “Front leg Hopping” value ([2]; Week 12.5) was 2 and the Intention tremors ([2]; Week 12.5) was “mild”. For the same molecule, the Vision-Menace ([2]; Week 12.5) was 1, the Rear leg hopping ([2]; Week 12.5, diagnosed with bilateral luxating patellas) was 2^† and the Ataxia ([2]; Week 16) was “none”. For the same molecule, the “Front leg Hopping” value ([2]; Week 16) was 2, the Intention tremors ([2]; Week 16) was “mild” and the Rear leg hopping ([2]; Week 16) was 2. The Vision-Menace ([2]; Week 16) was 1, the Ataxia ([2]; Week 18.5) was “none” and the “Front leg Hopping” value ([2]; Week 18.5) was 2. For the same molecule, the Intention tremors ([2]; Week 18.5) was “mild”, the Rear leg hopping ([2]; Week 18.5) was 1.5 and the Vision-Menace ([2]; Week 18.5) was 1.5. The Ataxia ([2]; Week 20.5) was “none”, the “Front leg Hopping” value ([2]; Week 20.5) was 2 and the Intention tremors ([2]; Week 20.5) was “mod”. For the same molecule, the Rear leg hopping ([2]; Week 20.5) was 2, the Vision-Menace ([2]; Week 20.5) was “.5” and the Ataxia ([2]; Week 22.5) was “none”. The “Front leg Hopping” value ([2]; Week 22.5) was 1.5, the Intention tremors ([2]; Week 22.5) was “mild” and the Rear leg hopping ([2]; Week 22.5) was 1.5. For the same molecule, the Vision-Menace ([2]; Week 22.5) was 1, the Ataxia ([2]; Week 24.5) was “none” and the “Front leg Hopping” value ([2]; Week 24.5) was 2. The Intention tremors ([2]; Week 24.5) was “mod”, the Rear leg hopping ([2]; Week 24.5) was 2 and the Vision-Menace ([2]; Week 24.5) was 1. For the same molecule, the Ataxia ([2]; Week 26.5) was “none”, the “Front leg Hopping” value ([2]; Week 26.5) was 2 and the Intention tremors ([2]; Week 26.5) was “mild”. For the same molecule, the Rear leg hopping ([2]; Week 26.5) was 1.5, the Vision-Menace ([2]; Week 26.5) was 1 and the Ataxia ([2]; Week 29) was “mod”. The “Front leg Hopping” value ([2]; Week 29) was 2, the Intention tremors ([2]; Week 29) was “mod” and the Rear leg hopping ([2]; Week 29) was 1. The Vision-Menace ([2]; Week 29) was 1, the Ataxia ([2]; Week 30.5) was “mild” and the Intention tremors ([2]; Week 30.5) was “mod”. The Vision-Menace ([2]; Week 30.5) was 1, the Ataxia ([2]; Week 32.5) was “mod” and the “Front leg Hopping” value ([2]; Week 32.5) was 1. For the same molecule, the Intention tremors ([2]; Week 32.5) was “mod”, the Rear leg hopping ([2]; Week 32.5) was 1 and the Vision-Menace ([2]; Week 32.5) was 0.5. The “Symptoms of neurologic degeneration typical for NPC” value ([2]; cats, NB-DNJ treatment) was “qualitatively delays”, the Fur colour [3, 8] was “light-coloured fur effect” and the Tolerability [3, 8] was “reasonably well handled”. The Appetite ([3]; NPC-affected cat S222, 100 mg/kg/day, relative to normal and NPC-affected cats) was “significantly reduced”, the Weight ([3]; Week 6.5) was 522 gms and the Weight ([3]; Week 12.5) was 965 gms. The Weight ([3]; Week 16) was 1265 gms, the Weight ([3]; Week 18.5) was 1390 gms and the Weight ([3]; Week 20.5) was 1453 gms. It also gave a Weight ([3]; Week 22.5) of 1469 gms, a Weight ([3]; Week 24.5) of 1495 gms and a Weight ([3]; Week 26.5) of 1525 gms. The Weight ([3]; Week 29) was 1565 gms, the Weight ([3]; Week 30.5) was 1590 gms and the Weight ([3]; Week 32.5) was 1677 gms. The Hepatotoxicity ([3]; NPC-affected cat S222, starting dose 1200 mg/kg/day) was “acutely hepatotoxic”, the Hepatotoxicity ([3]; cats, 150 mg/kg/day) was “hepatotoxic” and the Hepatotoxicity ([3]; cats, 1200 mg/kg/day) was “acutely hepatotoxic”. The “Appetite and overall responsiveness” value ([3]; normal cat S161, 100 mg/kg/day) was “decreased”, the Hair colour ([3]; normal cat S218, 100 mg/kg/day) was “markedly more beige” and the “Serum levels of liver enzymes” value ([3]; normal cat S218, 1200 mg/kg/day) was “dramatic elevation”. The Appetite ([3]; normal cat S218, eventual dosage 100 mg/kg/day) was “significantly less than that of a normal cat”, the Hepatotoxicity ([3]; normal cat S218, starting dose 1200 mg/kg/day) was “acutely hepatotoxic” and the “Weight at the end of the treatment period” value ([3]; normal female cat S218, 100 mg/kg/day, normal female cat expected about 4 kg) was “about 2.4 kg”. The “GM2 immunoreactivity in granular cell layer of cerebellum” value ([4]; NPC cat treated with NB-DNJ) was “largely devoid of GM2 immunoreactivity”, the “GM2 labeling in Purkinje cells” value ([4]; NPC cat treated with NB-DNJ) was “qualitatively less GM2 labeling” and the “GM2 labeling in the cerebral cortex” value ([4]; NPC cat treated with NB-DNJ, compared to untreated NPC cat) was “qualitatively less severe”. For the same molecule, the “Accumulation of glucosylceramide-containing glycolipids (e.g. GM2)” value ([4]; NPC cats) was “qualitatively decreases”, the “Symptoms of neurologic degeneration typical for NPC” value ([5]; NPC mice, 1200 mg/kg/day) was “qualitatively delaying” and the Increase in longevity ([5]; NPC mice, 1200 mg/kg/day versus untreated) was 26%. For the same molecule, the “Mice displaying symptoms of neurologic effects” value ([5]; NPC^−/− mice, 1200 mg/kg/day in chow, by 8 weeks of age, untreated 5 out of 6) was “none”, the “Mice displaying any degree of symptoms” value ([5]; NPC^−/− mice, 1200 mg/kg/day, by 9 weeks of age, untreated all six) was 4 of 7 and the “Survival (average ±SE)” value ([5]; NPC^−/− mice, 1200 mg/kg/day, n=7, untreated 65±1 days) was 88 ± 4 days. The “Surviving mice displaying some degree of NPC-induced neural degeneration” value ([5]; NPC^−/− mice, 1200 mg/kg/day, twelfth week) was “Three of these four”, the “Mice that lived into their twelfth week” value ([5]; NPC^−/− mice, 1200 mg/kg/day, all untreated dead by 10 weeks) was 4 of 7 and the “Inhibition of alpha-glucosidase 1” value [6] was “potent inhibitor”. The Glucosylceramide levels [7] was “markedly reduced”.

Source: US6683076B2, “Methods for therapeutic use of glucosylceramide synthesis inhibitors and composition thereof” (Oxford Glyco-Sciences (UK) Ltd, priority 2000, dated 2004)
